Laboratory results: ChEMBL document CHEMBL1147472, “Design, synthesis, and evaluation of a new class of noncyclic 1,3-dicarbonyl compounds as PPARalpha selective activators” (Bioorg Med Chem Lett, 2004)

Key:
[1] = target: T1, Peroxisome proliferator-activated receptor alpha (Homo sapiens) (UniProt Q07869); test: (§1) In vitro transcription activation on human peroxisome proliferator activated receptor-alpha (PPAR alpha)
T1 sequence (whole entry): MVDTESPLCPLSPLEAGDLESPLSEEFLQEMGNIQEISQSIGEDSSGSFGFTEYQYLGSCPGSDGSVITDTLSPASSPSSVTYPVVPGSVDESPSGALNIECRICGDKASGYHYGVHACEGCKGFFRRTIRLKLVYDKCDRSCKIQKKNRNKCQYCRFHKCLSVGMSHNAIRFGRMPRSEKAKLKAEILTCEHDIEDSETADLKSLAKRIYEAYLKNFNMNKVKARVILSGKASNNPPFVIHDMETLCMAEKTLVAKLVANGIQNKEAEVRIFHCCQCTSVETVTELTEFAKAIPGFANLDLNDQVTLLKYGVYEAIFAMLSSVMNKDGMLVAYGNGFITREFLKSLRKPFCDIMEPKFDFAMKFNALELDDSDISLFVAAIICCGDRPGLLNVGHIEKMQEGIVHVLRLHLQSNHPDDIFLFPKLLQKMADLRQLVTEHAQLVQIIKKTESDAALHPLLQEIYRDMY

[2] = target: T2, Peroxisome proliferator-activated receptor delta (Homo sapiens, UniProt Q03181); test: In vitro transcription activation on human peroxisome proliferator activated receptor-delta (PPAR delta)
T2 sequence (Q03181 whole entry): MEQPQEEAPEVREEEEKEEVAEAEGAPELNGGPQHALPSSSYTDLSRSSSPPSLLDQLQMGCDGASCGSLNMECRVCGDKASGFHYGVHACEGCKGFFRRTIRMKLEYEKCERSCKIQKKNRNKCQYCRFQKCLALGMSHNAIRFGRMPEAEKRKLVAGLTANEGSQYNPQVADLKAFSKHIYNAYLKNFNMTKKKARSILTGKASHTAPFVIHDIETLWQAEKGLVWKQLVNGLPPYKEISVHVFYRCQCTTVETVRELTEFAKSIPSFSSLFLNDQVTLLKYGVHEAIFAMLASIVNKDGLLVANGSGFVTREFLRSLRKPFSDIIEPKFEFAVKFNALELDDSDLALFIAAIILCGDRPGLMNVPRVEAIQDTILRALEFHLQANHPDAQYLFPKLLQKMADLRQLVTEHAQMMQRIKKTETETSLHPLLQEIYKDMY

[3] = target: T3, Peroxisome proliferator-activated receptor gamma (Homo sapiens, UniProt P37231); test: In vitro transcription activation on human peroxisome proliferator activated receptor-gamma (PPAR gamma)
T3 sequence (P37231 whole entry): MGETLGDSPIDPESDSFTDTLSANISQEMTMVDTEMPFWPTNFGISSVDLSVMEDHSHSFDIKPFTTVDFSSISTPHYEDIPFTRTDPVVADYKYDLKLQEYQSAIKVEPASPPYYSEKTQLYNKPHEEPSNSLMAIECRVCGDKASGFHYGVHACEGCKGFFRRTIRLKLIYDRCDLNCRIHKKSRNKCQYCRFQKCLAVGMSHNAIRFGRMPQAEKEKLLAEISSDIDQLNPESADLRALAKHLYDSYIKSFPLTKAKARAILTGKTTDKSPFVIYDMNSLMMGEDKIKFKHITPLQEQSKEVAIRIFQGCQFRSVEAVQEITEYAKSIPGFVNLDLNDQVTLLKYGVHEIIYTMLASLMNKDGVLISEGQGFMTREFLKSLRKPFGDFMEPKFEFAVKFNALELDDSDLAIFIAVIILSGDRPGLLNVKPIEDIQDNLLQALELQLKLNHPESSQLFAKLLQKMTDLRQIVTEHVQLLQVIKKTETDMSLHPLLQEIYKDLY

[4] = target: T4, Peroxisome proliferator-activated receptor alpha (Homo sapiens, UniProt Q07869); test: as §1
T4 sequence (Q07869 whole entry): T1 sequence (whole entry)

Mus musculus [5] = test: In vivo effect on blood glucose level in mice at a dose of 20 mg/kg by oral administration after two week; type: functional
[6] = target: T2, Peroxisome proliferator-activated receptor delta; test: In vitro transcription activation on human peroxisome proliferator activated receptor-delta (PPAR delta); Inactive
[7] = target: T3, Peroxisome proliferator-activated receptor gamma
[8] = target: T4, Peroxisome proliferator-activated receptor alpha; test: In vitro transcription activation on human peroxisome proliferator activated receptor-alpha (PPAR alpha); Inactive
[9] = target: T2, Peroxisome proliferator-activated receptor delta; test: In vitro transcriptional activation by human peroxisome proliferator activated receptor-delta (PPAR delta; Inactive
Mus musculus [10] = test: In vivo effect on blood glucose level in mice at the dose of 5 mg/kg by oral administration after two week; type: functional
Mus musculus [11] = test: In vivo effect on blood glucose level in mice at a dose of 30 mg/kg by oral administration after two week; type: functional
Mus musculus [12] = test: In vivo effect on blood glucose level in mice at a dose of 10 mg/kg by oral administration after two week; type: functional

SMILES | Max response [1] | EC50 [2] | EC50 [3] | EC50 [4] | EC50 [6] | EC50 [8] | further results
COC(=O)C(Cc1ccc(OCCOc2ccc3c(c2)NCCC3)cc1)C(=O)OC | 215% | 3160 nM | 3160 nM | 170 nM | – | – | –
NC(=O)C(Cc1ccc(OCCOc2ccc3ccccc3c2)cc1)C(=O)O (configuration not stated) | 213% | 2630 nM | 3020 nM | 250 nM | – | – | Reduction (Mus musculus [5]): 42.22%
O=C(O)C(Cc1ccc(OCCOc2ccc3c(c2)NCCC3)cc1)C(=O)O | – | – | – | – | Not Active | Not Active | EC50 [7]: Not Active
O=C(O)C(Cc1ccc(OCCOc2ccc3c(c2)CCCC3)cc1)C(=O)O | – | 4680 nM | 2110 nM | – | – | Not Active | –
O=C(O)C(Cc1ccc(OCCOc2ccc3ccccc3c2)cc1)C(=O)O | – | – | – | – | – | Not Active | EC50 [7]: Not Active; EC50 [9]: Not Active
COC(=O)C(Cc1ccc(OCCOc2ccc3c(c2)NCCC3)cc1)C(=O)O (configuration not stated) | 207% | 3090 nM | 3800 nM | 90 nM | – | – | –
COC(=O)C(Cc1ccc(OCCOc2ccc3c(c2)C(C)(C)CCC3(C)C)cc1)C(N)=O (configuration not stated) | – | – | 830 nM | – | Not Active | Not Active | –
CN(CCOc1ccc(CC2SC(=O)NC2=O)cc1)c1ccccn1 (configuration not stated) [ROSIGLITAZONE] | – | – | – | – | – | – | Reduction (Mus musculus [10]): 62.96%
COC(=O)C(Cc1ccc(OCCOc2ccc3c(c2)CCCC3)cc1)C(=O)O (configuration not stated) | – | 2450 nM | 690 nM | – | – | Not Active | –
COC(=O)C(Cc1ccc(OCCOc2ccc3c(c2)C(C)(C)CCC3(C)C)cc1)C(=O)OC | – | – | 150 nM | – | Not Active | Not Active | –
CC1(C)CCC(C)(C)c2cc(OCCOc3ccc(CC(C(=O)O)C(=O)O)cc3)ccc21 | – | – | 2050 nM | – | Not Active | Not Active | –
CC1(C)CCC(C)(C)c2cc(OCCOc3ccc(CC(C(N)=O)C(=O)O)cc3)ccc21 (configuration not stated) | – | – | – | – | Not Active | Not Active | EC50 [7]: Not Active
CCCCCCCCCCCCCCC(Br)C(=O)O (configuration not stated) | – | 3720 nM | – | – | – | – | –
Cc1oc(-c2ccccc2)nc1CCOc1ccc(CC2C(=O)NOC2=O)cc1 (configuration not stated) [REGLITAZAR] | – | – | – | – | Not Active | – | –
COC(=O)C(Cc1ccc(OCCOc2ccc3c(c2)CCCC3)cc1)C(N)=O (configuration not stated) | – | – | 3430 nM | – | Not Active | Not Active | –
Cc1cccc(Nc2cc(Cl)nc(SCC(=O)O)n2)c1C [PIRINIXIC ACID] | 100% | – | – | – | – | – | EC50 [7]: Not Active
COC(=O)C(Cc1ccc(OCCOc2ccc3c(c2)CCCC3)cc1)C(=O)OC | 210% | 3310 nM | 1500 nM | 30 nM | – | – | Reduction (Mus musculus [11]): 38.15%
COC(=O)C(Cc1ccc(OCCOc2ccc3ccccc3c2)cc1)C(=O)O (configuration not stated) | 264% | 1050 nM | 1120 nM | 44 nM | – | – | –
COC(=O)C(Cc1ccc(OCCOc2ccc3ccccc3c2)cc1)C(=O)OC | 264% | 1270 nM | 530 nM | 70 nM | – | – | Reduction (Mus musculus [12]): 35.08%; Reduction (Mus musculus [11]): 46.76%
COC(=O)C(Cc1ccc(OCCOc2ccc3c(c2)C(C)(C)CCC3(C)C)cc1)C(=O)O (configuration not stated) | – | – | 90 nM | – | Not Active | Not Active | –
NC(=O)C(Cc1ccc(OCCOc2ccc3c(c2)NCCC3)cc1)C(=O)O (configuration not stated) | 210% | 3620 nM | 2880 nM | 140 nM | – | – | –
